US20220154192A1, “SYSTEM AND METHOD FOR LIGHT-REGULATED OLIGOMERIZATION AND PHASE SEPARATION OF FOLDED DOMAINS AND RNA GRANULE-ASSOCIATED PROTEIN DOMAINS FOR DRUG- BASED SCREENING APPLICATIONS” (The Trustees of Princeton University, priority 2019, published 2022)
Entries after “also recorded” stand apart in the source; their conditions may differ. *1 amine or outer side, *2 acyl side, *3 side chain or, on linkers, in order; H or OH if unused. Where a SMILES comes first, the peptide text is derived from it. Bridges are numbered along the chain shown (N, C = ends). Roman numbers before positions name the chains, in order. [ ]: non-standard residue; d: D form. Actinocin(9to1) = Cc1c2oc3c(C)ccc(C(=O)[*:1])c3nc-2c(C(=O)[*:2])c(N)c1=O; NMeV = CN[C@H](C(=O)O)C(C)C; Sar = CNCC(=O)O

Assays:
[1] = system: G3BP KO cells; test: Lethality of drug treatment in cultured cells (qualitative observation); conditions: arsenite 400 μM; Actinomycin D 5 μg/mL
Description: (§1) Cell treatment with arsenite to dissociate polysomes Cells were treated by adding sodium arsenite to cell media at a concentration of 400 μM, which is in excess of saturating concentrations for polysome disassembly (Kedersha et al., 2016). […] Inhibition of polysome disassembly by pre-treating with cycloheximide was added to a final concentration of 100 μg/mL (G3BP KO cells expressing indicated fluorescent fusion proteins). Following 30-minutes of incubation, arsenite was added at a concentration of 400 μM. 1-hour later, cells were assessed for formation of stress granules (GFP-G3BP rescue) or activation cycles were performed (Corelets).
Actinomycin D dissolved in DMSO was used to treat G3BP KO cells expressing indicated Corelets at a concentration of 5 μg/mL. Images were taken 12-18 hours after actinomycin D treatment, a time interval during which nucleoli were no longer apparent by bright field observation and the vast majority of mRNA was expected to be degraded. Final concentration of DMSO was 0.5%. For Actinomycin D plus arsenite experiments, arsenite was added at a concentration of 400 μM˜12 hours following actinomycin D treatment and cells were imaged 1-2 hours subsequently.

[2] = system: opto-SGs (optogenetic stress granules) of G3BP ΔNTF2 Corelets in U2OS cells; test: G3BP ΔNTF2 Corelet opto-SG intracellular phase diagram; type: cell-based, human
From the text: To quantitatively interrogate the relationship between RBD valence and the threshold protein complex concentration for stress granule formation, the Corelet system described previously (the cores are comprised of a 24-mer ferritin complex coated by iLID molecules, which serves as an oligomerization platform mediated by blue light-stimulated sspB-iLID interactions, where the sspB-iLID is fused to the IDR regions and RBDs of G3BP) can be utilized to quantitatively map valence and concentration-dependent phase diagrams.
Pre-activation and post-activation images of G3BP KO cells stably expressing the indicated fusion proteins were captured with the mCherry (560) channel only to visualize the sspB component without triggering light-induced dimerization with the iLID-mGFP tagged Ferritin core. Cells were activated with a 488-laser using 1% laser power to cause dimerization of iLID and sspB. Activation of cells was achieved by imaging the mCherry and mGFP channels simultaneously using a 6-second frame interval for an area of 120×120 μm2 (1024×1024 pixels) at Nyquist zoom.
as §1
Actinomycin D dissolved in DMSO was used to treat G3BP KO cells expressing indicated Corelets at a concentration of 5 μg/mL. Images were taken 12-18 hours after actinomycin D treatment, a time interval during which nucleoli were no longer apparent by bright field observation and the vast majority of mRNA was expected to be degraded. Final concentration of DMSO was 0.5%. For Actinomycin D plus arsenite experiments, arsenite was added at a concentration of 400 μM˜12 hours following actinomycin D treatment and cells were imaged 1-2 hours subsequently. […] Time point was chosen to maximize the time since treatment (i.e. to reduce RNA cells by as much as possible) without extensive lethality from the drug.
In order to determine precise phase threshold boundaries for intracellular phase diagrams, analyzed cells must feature high variability with respect to sspB-mCherry and iLID-mGFP stoichiometries to sample sufficient core concentrations and valencies. In order to achieve a broad concentration range for both components, G3BP KO cells were transduced in 96-well plates (Cellvis) using an arrayed lentivirus approach. In this protocol, rows varied from 2 to 60 μL iLID-GFP-Fe lentivirus; columns, 2 to 60 μL mCherry-sspB-open reading frame (ORF)/ORF-mCherry-sspB lentivirus. G3BP KO cells were plated directly into the arrayed lentivirus to attain ˜25% confluency upon subsequent attachment to the plastic substrate.

[3] = system: stress granules; test: Arsenite-induced stress granule formation time course; type: cell-based, human; conditions: arsenite 400 μM
Description: as §1

[4] = system: stress granule formation in G3BP KO U2OS cells; test: G3BP rescue / rescue competition of stress granule formation in G3BP KO U2OS cells; type: cell-based, human; conditions: for rescue of stress granule formation in G3BP KO cells: expressed protein in G3BP KO cells
Description: For G3BP rescue competition experiments, an identical arrayed lentivirus approach was used as described in Phase diagram data collection (i.e. 2-60 μL G3BPmCherry and 2-60 μL mGFP-ORF, arrayed 4-wells by 4-wells for 16-wells total of a 96-well plate). G3BP KO cells were plated into lentivirus then combined and passaged 72-hours later.
Live cell confocal microscopy was performed on Day 5 post-transduction. For each condition (GFP-tagged protein of interest), 4 separate experiments (each experiment=1-well/arsenite treatment) were performed on three separate days with numerous technical replicates (fields of view). Live confocal imaging was performed 1-2 hours following arsenite treatment. mCherry and mGFP concentrations were determined similarly as for phase diagrams and manual scoring of stress granule absence or presence was performed. Similar protocols were used to assess rescue in the absence of competition.
The concentration of each cell was determined via manual image segmentation as previously described and absence or presence of stress granules was annotated. To determine a boundary from the data, a support vector machine (SVM) trained using the concentrations of the two components as explanatory variables and the categorical stress granule state as a response variable by applying the fitcsvm( ) function in the MATLAB Statistics and Machine Learning package using the default solver. Briefly, a support vector machine constructs a linear decision surface based on boundary points (‘support vectors’), with the assumption that the data is linearly separable. […]
For each experiment, the concentration of the protein of interest was determined for each cell, and the presence of stress granules was categorized. […] Specifically, the probability density was calculated by binning the concentration distribution using a square root number rule. Within each bin, the probability of having stress granules was calculated as the number of cells with stress granules over the total number of cells in that bin. […]

[5] = system: CAPRIN1 RGG Corelets; test: CAPRIN1 RGG (RBD) Corelet phase separation after RNA depletion; type: cell-based, human; conditions: RNA depletion by Actinomycin D
From the text: High valence G3BP RBD nodes (but not dimeric bridges) are sufficient to induce stress granule formation following polysome disassembly, but it is unclear whether this is a unique feature of G3BP or common to RNA-binding nodes that interact with G3BP NTF2. We reasoned that if such NTF2-associated RBPs contribute essential, additive RNA-binding valence to the multi-protein complex, synthetic high valence nodes connected to individual RBDs would nucleate opto-SGs in isolation (i.e. mimic G3BP RBD Corelets). To test this, the RBDs of CAPRIN1 and UBAP2L were oligomerized utilizing the Corelet system, and mapped phase diagrams in both non-treated and arsenite-exposed cells. […] Further, condensate protein composition, P-body attachment, and relative phase thresholds are not determined by the type or number of RNA-binding motifs. […]
In order to determine precise phase threshold boundaries for intracellular phase diagrams, analyzed cells must feature high variability with respect to sspB-mCherry and iLID-mGFP stoichiometries to sample sufficient core concentrations and valencies. […] In this protocol, rows varied from 2 to 60 μL iLID-GFP-Fe lentivirus; columns, 2 to 60 μL mCherry-sspB-open reading frame (ORF)/ORF-mCherry-sspB lentivirus. […]

## O=[As]O [arsenite, sodium arsenite]
[1]
  time after treatment at which cells began to die / treatment was lethal: ~6 h
[2]; at 0.15 μM Core, arsenite 400 μM, non-stressed cells need valence ~24
  valence required to drive condensation: ~8
[3]
  time by which SG number/size peaked: ≤ 45 min

## G3BP: stress granule nucleating protein, fluorescently tagged, expressed in G3BP KO cells
[4]; G3BP KO U2OS cells, arsenite, read-out: G3BP concentration for rescue of stress granule formation
  EC50: 620 nM

## Cc1c2oc3c(C)ccc(C(=O)N[C@@H]4C(=O)N[C@H](C(C)C)C(=O)N5CCC[C@H]5C(=O)N(C)CC(=O)N(C)[C@@H](C(C)C)C(=O)O[C@@H]4C)c3nc-2c(C(=O)N[C@@H]2C(=O)N[C@H](C(C)C)C(=O)N3CCC[C@H]3C(=O)N(C)CC(=O)N(C)[C@@H](C(C)C)C(=O)O[C@@H]2C)c(N)c1=O [Actinomycin D] (I: T[dV]P[Sar][NMeV] / II: T[dV]P[Sar][NMeV]; ester I:1-I:C, II:1-II:C; linker I:N-II:N via Actinocin(9to1))
[1]
  time after treatment at which cells began to die / treatment was lethal: 30 to 36 h
[5]
  phase separation of CAPRIN1 RGG Corelets: abrogates phase separation
[2]; Actinomycin D 5 μg/mL, 12-18 hours, FIG. 15D
  formation of opto-SGs: prevents the formation of opto-SGs; also recorded: disrupts the formation of SGs

## C[C@@H]1C[C@@H]([C@H](O)CC2CC(=O)NC(=O)C2)C(=O)[C@@H](C)C1 [cycloheximide]
[2]; arsenite and cycloheximide, FIG. 15C vs FIG. 15A
  calculated best-fit phase threshold: almost identical to that of nontreated cells
[2]; pre-treatment with cycloheximide 100 μg/mL 30 min, then arsenite 400 μM
  arsenite-driven shift in the opto-SG phase diagram: negated

## G3BP F33W: G3BP variant unable to bind USP10 or CAPRIN1
[4]
  rescue of stress granule formation in G3BP KO cells: rescues SG formation

B1: CAPRIN1: NTF2-interacting RNA-binding stress granule protein (protein, UniProt Q14444 2-709, looked up)
Caprin-1: PSATSHSGSGSKSSGPPPPSGSSGSEAAAGAGAAAPASQHPATGTGAVQTEAMKQILGVIDKKLRNLEKKKGKLDDYQERMNKGERLNQDQLDAVSKYQEVTNNLEFAKELQRSFMALSQDIQKTIKKTARREQLMREEAEQKRLKTVLELQYVLDKLGDDEVRTDLKQGLNGVPILSEEELSLLDEFYKLVDPERDMSLRLNEQYEHASIHLWDLLEGKEKPVCGTTYKVLKEIVERVFQSNYFDSTHNHQNGLCEEEEAASAPAVEDQVPEAEPEPAEEYTEQSEVESTEYVNRQFMAETQFTSGEKEQVDEWTVETVEVVNSLQQQPQAASPSVPEPHSLTPVAQADPLVRRQRVQDLMAQMQGPYNFIQDSMLDFENQTLDPAIVSAQPMNPTQNMDMPQLVCPPVHSESRLAQPNQVPVQPEATQVPLVSSTSEGYTASQPLYQPSHATEQRPQKEPIDQIQATISLNTDQTTASSSLPAASQPQVFQAGTSKPLHSSGINVNAAPFQSMQTVFNMNAPVPPVNEPETLKQQNQYQASYNQSFSSQPHQVEQTELQQEQLQTVVGTYHGSPDQSHQVTGNHQQPPQQNTGFPRSNQPYYNSRGVSRGGSRGARGLMNGYRGPANGFRGGYDGYRPSFSNTPNSGYTQSQFSAPRDYSGYQRDGYQQNFKRGSGQSGPRGAPRGRGGPPRPNRGMPQMNTQQVN
[4]
  rescue of stress granule formation in G3BP KO cells: does not rescue
